Test results as given in patent US20240279202A1 (NURIX THERAPEUTICS, INC., priority 2021, published 2024).

Target: T1, ITK (Homo sapiens, UniProt Q08881)
T1 sequence (Q08881 1-620): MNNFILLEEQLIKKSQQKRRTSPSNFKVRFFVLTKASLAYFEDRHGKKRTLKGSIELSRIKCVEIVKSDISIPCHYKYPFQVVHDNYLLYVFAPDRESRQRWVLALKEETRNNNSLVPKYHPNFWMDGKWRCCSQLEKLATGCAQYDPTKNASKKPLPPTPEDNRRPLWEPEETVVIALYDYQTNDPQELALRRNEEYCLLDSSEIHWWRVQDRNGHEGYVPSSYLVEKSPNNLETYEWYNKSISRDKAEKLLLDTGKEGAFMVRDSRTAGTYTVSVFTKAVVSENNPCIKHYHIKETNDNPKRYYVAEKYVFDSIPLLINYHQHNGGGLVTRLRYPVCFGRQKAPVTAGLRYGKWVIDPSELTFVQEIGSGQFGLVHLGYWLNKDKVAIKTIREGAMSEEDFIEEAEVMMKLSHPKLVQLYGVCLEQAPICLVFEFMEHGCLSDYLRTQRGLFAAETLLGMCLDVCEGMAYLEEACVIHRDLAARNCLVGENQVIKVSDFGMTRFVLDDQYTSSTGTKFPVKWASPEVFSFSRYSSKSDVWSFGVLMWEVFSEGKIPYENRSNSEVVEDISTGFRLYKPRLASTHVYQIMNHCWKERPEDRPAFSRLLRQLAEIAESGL
Assay: ITK degradation HiBiT assay
Format: cell-based
Design: expressed in transfected cells; host or cells: Molt4 (ATCC CRL-1552), monoclonal clone 1C10, engineered to carry the HiBiT tag
Details: 4 hrs; for DC50: C-terminal HiBiT-tagged Molt4 cells; for Dmax: MOLT-4, C-terminal HiBiT-tagged Molt4 cells
Procedure: Itk Degradation Hibit Assay
Compounds provided herein were assayed in vitro with ITK HiBit cell lines. Compound dilution series (11-point, 5 fold dilutions in DMSO, columns 2-12 with replicate in rows A/B, C/D, E/F, G,H at 2000× the final required concentrations were prepared in 96 well plates (Falcon, cat. no. 353077). Column 1, rows A-H were control DMSO. The 2000× solutions ranged from 2 mM to 1.024 nM (final assay concentration range 1 μM to […]). The 2000× solutions were added to cells in […], for a final DMSO concentration of 0.5% and final assay compound concentration of 1×. For the cells, C-terminal HiBiT-tagged Molt4 cells (ATCC CRL-1552, monoclonal cell line clone 1C10) were plated at 1×10^6 cells/mL, 100 μL/well ([…]) in complete RPMI (10% FBS, 1% L-glutamine). The cells were incubated with compound 10 and compound 17 for 4 hrs at […]/6% CO2.
Following incubation, 100 μL of complete Nano-Glo HiBiT Lytic Detection Reagent (Nano-Glo HiBiT Lytic Buffer with 1:50 Nano-Glo HiBiT Lytic Substrate and 1:100 LgBiT Protein; Promega cat. no. N3040) was added. Cells were further incubated for 10 min at room temperature (RT). Luminescence units (LU) were read on an EnVision plate reader (Perkin Elmer, 0.1 sec per well). Percent ITK remaining per sample was calculated as follows: […]
Using Graphpad Prism, % ITK remaining values were plotted as a function of compound concentration. To determine DC50 and Dmax values, resulting curves were fit to the Prism curve-fitting equation “log(inhibitor) vs response—Variable slope (four parameters)” (reported best fit value IC50 used as DC50). ITK was measured with antibody-based MSD (Meso-Scale Discovery) assays shown below.

Row | Compound | DC50 [nM] | Dmax [%]
1 | CC1(C)CCc2c(-c3cc4ccc(C(=O)N5CCC(CN6CCN(c7cc(C8CCC(=O)NC8=O)ccn7)CC6)CC5)cc4[nH]3)n[nH]c2C1 (centres unmarked) [Compound 214, 3-{2-[4-({1-[2-(6,6-dimethyl-1,4,5,7-tetrahydroindazol-3-yl)-1H-indole-6-carbonyl]piperidin-4-yl}methyl)piperazin-1-yl]pyridin-4-yl}piperidine-2,6-dione] | 36 | 53
2 | CC1(C)CCc2c(-c3cc4cc(C(=O)N5CCC(CN6CCc7cc(C8CCC(=O)NC8=O)ccc7C6)CC5)ccc4[nH]3)n[nH]c2C1 (centres unmarked) [Compound 194] |  | 64
3 | CC1(C)CCc2c(-c3cc4ccc(N5CCC6(CCN(Cc7ccc8c(c7)C(=O)N(C7CCC(=O)NC7=O)C8=O)CC6)C5=O)cc4[nH]3)n[nH]c2C1 (centres unmarked) [Compound 8, 5-((2-(2-(6,6-dimethyl-4,5,6,7-tetrahydro-1H-indazol-3-yl)-1H-indol-6-yl)-1-oxo-2,8-diazaspiro[4.5]decan-8-yl)methyl)-2-(2,6-dioxopiperidin-3-yl)isoindoline-1,3-dione] | 7.8 | 92
4 | C[C@@H](C(=O)N(C)c1cc2[nH]c(-c3n[nH]c4c3CCC(C)(C)C4)cc2cc1F)N1CCN(CC2CCN(c3ccc(C4CCC(=O)NC4=O)cn3)CC2)CC1 (some centres unmarked) [Compound 188] |  | 85
5 | C[C@@H]1CN(C(=O)c2ccc3cc(-c4n[nH]c5c4CCC(C)(C)C5)[nH]c3c2)CCN1CC1CCN(c2ccc(C3CCC(=O)NC3=O)cc2)CC1 (some centres unmarked) [Compound 156] |  | 84
6 | Cc1nc(N2CCC(CN3CCN(C(=O)c4ccc5cc(-c6n[nH]c7c6CCC(C)(C)C7)[nH]c5c4)CC3)CC2)ccc1C1CCC(=O)NC1=O (centres unmarked) [Compound 181] |  | 61
7 | C[C@H]1CN(C(=O)c2ccc3cc(-c4n[nH]c5c4C[C@@H]4C(F)(F)[C@]4(C)C5)[nH]c3c2)CCN1CC1CCN(c2ccc(C3CCC(=O)NC3=O)cc2)CC1 (mixture of isomers) [Compound 153] |  | 80
8 | CN(C(=O)CN1CC2(CCN(c3ccc4c(c3)C(=O)N(C3CCC(=O)NC3=O)C4=O)C2)C1)c1ccc2cc(-c3n[nH]c4c3C[C@@H]3C(F)(F)[C@]3(C)C4)[nH]c2c1 (some centres unmarked) [Compound 71] | 5.2 | 70
9 | CC1(C)CCc2c(-c3cc4cc(F)c(C(=O)N5CCN(CC6CCN(c7ccc(C8CCC(=O)NC8=O)cc7)CC6)CC5)cc4[nH]3)n[nH]c2C1 (centres unmarked) [Compound 137, 3-(4-(4-((4-(2-(6,6-dimethyl-4,5,6,7-tetrahydro-1H-indazol-3-yl)-5-fluoro-1H-indole-6-carbonyl)piperazin-1-yl)methyl)piperidin-1-yl)phenyl)piperidine-2,6-dione] | 4.4 | 81

Continued, values first:

Row | DC50 [nM] | Dmax [%] | Compound
10 | 1.7 | 88 | C[C@@]12Cc3[nH]nc(C(=O)Nc4ccc(C5CCN(CC6CCN(c7ccc(C8CCC(=O)NC8=O)cc7)CC6)CC5)nc4)c3C[C@@H]1C2(F)F (stereo partly drawn) [Compound 110, (4aS,5aR)-N-(6-(1-((1-(4-(2,6-dioxopiperidin-3-yl)phenyl)piperidin-4-yl)methyl)piperidin-4-yl)pyridin-3-yl)-5,5-difluoro-5a-methyl-1,4,4a,5,5a,6-hexahydrocyclopropa[f]indazole-3-carboxamide]
11 | 1.8 |  | C[C@@]12Cc3[nH]nc(C(=O)Nc4cnn(C5CN(C(=O)C6CN(c7ccc(C8CCC(=O)NC8=O)cn7)C6)C5)c4)c3C[C@@H]1C2(F)F (stereo partly drawn) [Compound 55, (4aS,5aR)-N-(1-(1-(1-(5-(2,6-dioxopiperidin-3-yl)pyridin-2-yl)azetidine-3-carbonyl)azetidin-3-yl)-1H-pyrazol-4-yl)-5,5-difluoro-5a-methyl-1,4,4a,5,5a,6-hexahydrocyclopropa[f]indazole-3-carboxamide]
12 | 3.3 | 88 | C[C@@]12Cc3[nH]nc(C(=O)Nc4cnn(C5CCC(CN6CCN(c7ccc(C8CCC(=O)NC8=O)cn7)CC6)CC5)c4)c3C[C@@H]1C2(F)F (mixture of isomers) [Compound 125, (4aS,5aR)-5,5-difluoro-5a-methyl-N-{1-[(1rs,4rs)-4-[(4-{5-[(3RS)-2,6-dioxopiperidin-3-yl]pyridin-2-yl}piperazin-1-yl)methyl]cyclohexyl]-1H-pyrazol-4-yl}-1H,4H,4aH,5H,5aH,6H-cyclopropa[f]indazole-3-carboxamide]
13 |  | 70 | C[C@@]12Cc3[nH]nc(C(=O)Nc4cnn(CC5CCN(CC6CCN(C(=O)c7ccc(F)c(N8CCC(=O)NC8=O)c7)CC6)CC5)c4)c3C[C@@H]1C2(F)F [Compound 204]
14 |  | 86 | C[C@@]12Cc3[nH]nc(C(=O)Nc4cnn(C5CCN(C(=O)C6CCN(c7ccc(C8CCC(=O)NC8=O)cn7)C6)CC5)c4)c3C[C@@H]1C2(F)F (mixture of isomers) [Compound 167]
15 | 1.1 | 89 | C[C@@]12Cc3[nH]nc(C(=O)Nc4cnn([C@@H]5CCN(CC6CCN(c7ccc([C@H]8CCC(=O)NC8=O)cc7)CC6)C[C@H]5F)c4)c3C[C@@H]1C2(F)F (single isomer, unassigned) [Compound 96]
16 | < 0.01 | 90 | Cn1c(=O)n(C2CCC(=O)NC2=O)c2cccc(N3CCC(CN4CC(n5cc(NC(=O)c6n[nH]c7c6C[C@@H]6C(F)(F)[C@]6(C)C7)cn5)C4)CC3)c21 (stereo partly drawn) [Compound 57, (4aS,5aR)-N-(1-(1-((1-(1-(2,6-dioxopiperidin-3-yl)-3-methyl-2-oxo-2,3-dihydro-1H-benzo[d]imidazol-4-yl)piperidin-4-yl)methyl)azetidin-3-yl)-1H-pyrazol-4-yl)-5,5-difluoro-5a-methyl-1,4,4a,5,5a,6-hexahydrocyclopropa[f]indazole-3-carboxamide]
17 | 0.8 | 81 | C[C@@]12Cc3[nH]nc(-c4cc5ccc(C(=O)N6CCN(CC7CCN(c8ccc(C(=O)N[C@H]9CCC(=O)NC9=O)nc8)CC7)CC6)cc5[nH]4)c3C[C@@H]1C2(F)F [Compound 139, 5-(4-((4-(2-((4aS,5aR)-5,5-difluoro-5a-methyl-1,4,4a,5,5a,6-hexahydrocyclopropa[f]indazol-3-yl)-1H-indole-6-carbonyl)piperazin-1-yl)methyl)piperidin-1-yl)-N—((S)-2,6-dioxopiperidin-3-yl)picolinamide]
18 | 19.1 | 69 | C[C@@]12Cc3[nH]nc(C(=O)Nc4cnn([C@H]5CC[C@H](CN6CCN(c7ccc(C(=O)NC8CCC(=O)NC8=O)nc7)CC6)CC5)c4)c3C[C@@H]1C2(F)F (mixture of isomers) [Compound 127, N-[(3SR)-2,6-dioxopiperidin-3-yl]-5-(4-{[(1rs,4rs)-4-{4-[(4aS,5aR)-5,5-difluoro-5a-methyl-1H,4H,4aH,5H,5aH,6H-cyclopropa[f]indazole-3-amido]-1H-pyrazol-1-yl}cyclohexyl]methyl}piperazin-1-yl)pyridine-2-carboxamide]
19 | 0.01 |  | C[C@@]12Cc3[nH]nc(-c4cc5ccc(N6CCC7(CCN(C(=O)C8CCN(c9ccc(C%10CCC(=O)NC%10=O)cn9)CC8)CC7)C6=O)cc5[nH]4)c3C[C@@H]1C2(F)F (stereo partly drawn) [Compound 24, 3-(6-(4-(2-(2-((4aS,5aR)-5,5-difluoro-5a-methyl-1,4,4a,5,5a,6-hexahydrocyclopropa[f]indazol-3-yl)-1H-indol-6-yl)-1-oxo-2,8-diazaspiro[4.5]decane-8-carbonyl)piperidin-1-yl)pyridin-3-yl)piperidine-2,6-dione]
20 |  | 76 | CC1(C)CCc2c(C(=O)Nc3cnn([C@H]4CC[C@H](C(=O)N5CCN(c6ccc(C7CCC(=O)NC7=O)cc6)CC5)CC4)c3)n[nH]c2C1 (mixture of isomers) [Compound 176]
21 |  | 88 | C[C@@]12Cc3[nH]nc(C(=O)Nc4cnn(C5CCN(C(=O)C6CCC(Oc7ccc(C8CCC(=O)NC8=O)cn7)CC6)CC5)c4)c3C[C@@H]1C2(F)F (mixture of isomers) [Compound 168]
22 |  | 88 | Cn1c(=O)n(C2CCC(=O)NC2=O)c2cccc(N3CCC(C(=O)N4CCC(n5cc(NC(=O)c6n[nH]c7c6C[C@@H]6C(F)(F)[C@]6(C)C7)cn5)CC4)CC3)c21 (mixture of isomers) [Compound 171]
